PMC7136079 (Translational and Clinical Pharmacology, 2020)
Like-named read-outs stand apart in the source and are kept apart here.

Legend:
[1] = cited from earlier work; for within-subject variability (coefficient of variation) of Cmax: ref unpublished previous study results

Compound | Tmax ([1]; 50 mg) | terminal half-life (t1/2) [1] | time at which maximum concentration (Cmax) was attained [1] | pharmacokinetic dose linearity ([1]; dose range of 50–400 mg) | within-subject variability (coefficient of variation) of Cmax ([1]; fasted state, 2016) | within-subject variability (coefficient of variation) of Cmax ([1]; fed state, 2015) | AUCinf geometric mean ratio (90% CI) (fed state, ratio of the FDC to the loose combination) | time to reach Cmax ([1]; extended-release formulations) | Tmax (fed state (high fat meal), given as loose combination gemigliptin 50 mg + metformin XR 1,000 mg, n = 30, median [minimum–maximum]) | Tmax (human, plasma, oral)
N[C@@H](CC(=O)N1CCc2c(nc(C(F)(F)F)nc2C(F)(F)F)C1)CN1CC(F)(F)CCC1=O [Gemigliptin] | approximately 2 hours | 17.1 h | 2 h | linearity | approximately 23.4% | approximately 20.4% | 0.9940 (0.9691–1.0195) | – | – | –
CN(C)C(=N)N=C(N)N [Metformin] | – | – | – | – | – | – | – | 4 to 8 h | 6.00 [4.00–8.03] h | 6.04 h
